{"source": "patent US20230212526A1", "about": "“PLURIPOTENT STEM CELL-DERIVED HEART ORGANOID” (Board of Trustees of Michigan State University, priority 2020, published 2023)", "key": {"[1]": {"test_system": "human heart organoids (hHOs)", "assay": "Cardiomyocyte differentiation in hHOs after initial CHIR99021 exposure (day 0, 24 hours), confocal TNNT2 quantification and beating", "type": "cell-based", "settings": "for TNNT2+ cells (cardiomyocyte content): read at day 15", "description": "Self-assembling hHO differentiation. Accutase® (Innovative Cell Technologies) was used to dissociate PSCs for spheroid formation. After dissociation, cells were centrifuged at 300 g for 5 minutes and resuspended in Essential 8™ Flex medium containing 2 μM ROCK inhibitor Thiazovivin (Millipore Sigma). hPSCs were then counted using a Moxi Cell Counter (Orflo Technologies) and seeded at 10000 cells/well in round bottom ultra-low attachment 96-well plates (Costar) on day −2. The plate was then centrifuged at 100 g for 3 minutes and placed in an incubator at 37° C. and 5% CO2. After 24 hours (day −1), 50 μl of media was carefully removed from each well and 200 μl of fresh Essential 8™ Flex medium was added for a final volume of 250 μl/well. The plate was returned to the incubator for a further 24 hours. […] On day 1, 166 μl of media was removed and replaced with fresh RPMI 1640 with B27™ Supplement, minus insulin. On day 2, RPMI 1640 with B27™ Supplement, minus insulin containing Wnt-059 (Selleck) was added for a final concentration of 2 μM Wnt-059, and the samples were incubated for 48 hours. The media was changed on day 4 and day 6. On day 6, media was changed to RPMI 1640 with B27™ Supplement (Gibco). On day 7, a second 4 μM CHIR99021 exposure was conducted for 1 hour in RPMI 1640 with B27™ Supplement. Subsequently, media was changed every 48 hours until organoids were ready for analysis. Diabetic conditions were simulated by using basal RPMI media with 11.1 mM glucose and 58 nM insulin and compared with control media containing 3.5 mM glucose and 170 pM insulin.\nImmunofluorescence. hHOs were transferred to microcentrifuge tubes (Eppendorf) using a cut 1000-μL pipette tip to avoid disruption to the organoids and fixed in 4% paraformaldehyde solution (dissolved in PBS) for 30 minutes at room temperature. Fixation was followed by three washes in PBS-Glycine (20 mM) and incubation in blocking/permeabilization solution (10% Donkey Normal Serum, 0.5% Triton™ X-100, 0.5% BSA in PBS) on a thermal mixer (Thermo Scientific) at 300 RPM at 4° C. overnight. hHOs were then washed three times in PBS and incubated with primary antibodies (see Table 1) in Antibody Solution (1% Donkey Normal Serum, 0.5% Triton™ X-100, 0.5% BSA in PBS) on a thermal mixer at 300 RPM at 4° C. for 24 hours. […]\n(§1) Confocal microscopy and image analysis. Samples were imaged using two confocal laser scanning microscopes (Nikon Instruments A1 Confocal Laser Microscope; Zeiss LSM 880 NLO Confocal Microscope System) and images were analyzed using Fiji (hypertext transfer protocol secure//imagej.net/Fiji). For tissue region quantification in the organoids, DAPI positive cells were used for normalization against the target cell marker of interest across three z-planes throughout each organoid. […]"}, "[2]": {"test_system": "human heart organoids (hHOs)", "assay": "Second CHIR99021 exposure on day 7: epicardial cell and cardiomyocyte formation in hHOs (confocal quantification)", "type": "cell-based", "description": "Self-assembling hHO differentiation. Accutase® (Innovative Cell Technologies) was used to dissociate PSCs for spheroid formation. After dissociation, cells were centrifuged at 300 g for 5 minutes and resuspended in Essential 8™ Flex medium containing 2 μM ROCK inhibitor Thiazovivin (Millipore Sigma). hPSCs were then counted using a Moxi Cell Counter (Orflo Technologies) and seeded at 10000 cells/well in round bottom ultra-low attachment 96-well plates (Costar) on day −2. The plate was then centrifuged at 100 g for 3 minutes and placed in an incubator at 37° C. and 5% CO2. After 24 hours (day −1), 50 μl of media was carefully removed from each well and 200 μl of fresh Essential 8™ Flex medium was added for a final volume of 250 μl/well. The plate was returned to the incubator for a further 24 hours. On day 0, 166 μl (approximately ⅔ of total well volume) of media was removed from each well and 166 μl of RPMI 1640 with B27™ Supplement, minus insulin (Gibco) containing CHIR99021 (Selleck) was added at a final concentration of 4 μM/well along with BMP4 at 0.36 pM (1.25 ng/ml) and ActA at 0.08 pM (1 ng/ml) for 24 hours. On day 1, 166 μl of media was removed and replaced with fresh RPMI 1640 with B27™ Supplement, minus insulin. On day 2, RPMI 1640 with B27™ Supplement, minus insulin containing Wnt-059 (Selleck) was added for a final concentration of 2 μM Wnt-059, and the samples were incubated for 48 hours. The media was changed on day 4 and day 6. On day 6, media was changed to RPMI 1640 with B27™ Supplement (Gibco). […] Subsequently, media was changed every 48 hours until organoids were ready for analysis. Diabetic conditions were simulated by using basal RPMI media with 11.1 mM glucose and 58 nM insulin and compared with control media containing 3.5 mM glucose and 170 pM insulin.\nImmunofluorescence. hHOs were transferred to microcentrifuge tubes (Eppendorf) using a cut 1000-μL pipette tip to avoid disruption to the organoids and fixed in 4% paraformaldehyde solution (dissolved in PBS) for 30 minutes at room temperature. […]\nas §1"}, "[3]": {"test_system": "FlipGFP transgenic iPSC-L1 derived hHOs", "assay": "FlipGFP apoptosis reporter in hHOs (effector caspase activation)", "type": "cell-based, human", "settings": "5 μM doxorubicin, positive control", "description": "Lentiviral transduction. FlipGFP plasmid (Vector Builder) was transduced into a L1 iPSC line using a ZymoPURE™ II Plasmid Midiprep Kit (Fisher Scientific) according to manufacturer instructions. HEK293t were cultured in D10 media (DMEM+10% FBS+1% P/S) and later switched with reduced serum OptiMem™ (Gibco, Fisher Scientific) for 1 hour. Lipofectamine mixture (100 μl Lipofectamine 2000 (Thermo Fisher Scientific)+4 ml OptiMem™ sitting at room temperature for 5 minutes) was mixed with PLUS™ reagent mixture (200 μl PLUS™ reagent (Invitrogen, Fisher Scientific)+4 ml OptiMem™+20 μg lentiCRISPR plasmid+10 μg pMD2.gpVSVg (or pVSVgpMD2.g)+15 μg psPAX2) and was then added to the HEK293t cells and allowed to incubate at 37° C. for 6 hours. Following this, the media was changed to 30 ml D10+1% BSA per flask, without antibiotics. After 48-60 hours, the media was collected and centrifuged at 3000 rpm at 4° C. for 10 minutes. The supernatant was transferred to an Amicon® Filter Unit (Millipore-Sigma) and spun in a tabletop centrifuge at 3200 g for 30 minutes at 4° C. The flow through was dumped, and the process was repeated. The concentrated virus was aliquoted and stored at −80° C. Virus aliquot and polybrene (Fisher Scientific) were thawed at 37° C. Virus and polybrene were delivered to iPSC-L1s at low- to mid-confluences and incubated overnight. […]"}, "[4]": {"settings": "single 2 μM CHIR99021 for 1 hour on day 7, read at day 15"}}}
{"smiles": "Cc1c[nH]c(-c2cnc(NCCNc3ccc(C#N)cn3)nc2-c2ccc(Cl)cc2Cl)n1", "note": "[CHIR99021]", "values": [{"measurement": "TNNT2+ cells (cardiomyocyte content)", "setting": "[1]; 4 μM CHIR99021 on day 0 for 24 hours", "result": "64±5", "unit": "%"}, {"measurement": "functional properties (beats per minute, percentage of beating hHOs)", "setting": "[1]; 4 μM versus 6.6 μM and 8 μM CHIR99021", "result": "best functional properties of the three concentrations"}, {"measurement": "TNNT2+ cells (cardiomyocyte content)", "setting": "[1]; 6.6 μM CHIR99021 on day 0 for 24 hours", "result": "9.6±5", "unit": "%"}, {"measurement": "TNNT2+ cells (cardiomyocyte content)", "setting": "[1]; 8 μM CHIR99021 on day 0 for 24 hours", "result": "2.4±2", "unit": "%"}, {"measurement": "formation of cardiac cell types other than epicardial cells (cardiomyocytes)", "setting": "[2]; high concentrations or long exposure times of second exposure", "result": "marked inhibition"}, {"measurement": "formation of proepicardium and epicardial cells", "setting": "[2]; second exposure on day 7, 2-8 μM, 1-48 hours", "result": "robustly promoted the formation of proepicardium and epicardial cells"}, {"measurement": "cardiomyocytes (TNNT2+ area)", "setting": "[2]; [4]", "result": 60, "unit": "%"}, {"measurement": "epicardial cells (WT1+/TJP1+ area)", "setting": "[2]; [4]", "result": "10-20%"}]}
{"smiles": "COc1cccc2c1C(=O)c1c(O)c3c(c(O)c1C2=O)C[C@@](O)(C(=O)CO)C[C@@H]3O[C@H]1C[C@H](N)[C@H](O)[C@H](C)O1", "note": "[doxorubicin]", "values": [{"measurement": "apoptosis (FlipGFP fluorescence)", "setting": "[3]", "result": "high apoptosis"}, {"measurement": "apoptosis (FlipGFP fluorescence)", "setting": "[3]; listed as Doxorubicin", "result": "evident signs of cell death"}]}
